According to the NIST ThermoML archive (doi:10.1016/j.tca.2004.11.022):

Assays:
[1] = xn = mol fraction of the nth substance listed; conditions: 101 kPa, Liquid; for mass density: Vibrating tube method; for speed of sound: Pulse-echo method
[2] = molar heat capacity at constant pressure; xn = mol fraction of the nth substance listed; conditions: 101 kPa, Liquid, Small sample (50 mg) DSC

COC(=O)OC [dimethyl carbonate] + CCCCCCCC
Conditions | mass density [kg/m3] | molar heat capacity at constant pressure [J/K/mol] | speed of sound [m/s]
[1], 288.15 K, x1 = 0.05047 | 715.14 | – | –
[1], 288.15 K, x1 = 0.1072 | 725.36 | – | –
[1], 288.15 K, x1 = 0.1969 | 743.56 | – | –
[1], 288.15 K, x1 = 0.2958 | 766.42 | – | –
[1], 288.15 K, x1 = 0.4018 | 794.6 | – | –
[1], 288.15 K, x1 = 0.5011 | 825 | – | –
[1], 288.15 K, x1 = 0.5974 | 858.8 | – | –
[1], 288.15 K, x1 = 0.699 | 900.18 | – | –
[1], 288.15 K, x1 = 0.7982 | 947.83 | – | –
[1], 288.15 K, x1 = 0.8992 | 1005.83 | – | –
[1], 288.15 K, x1 = 0.949 | 1038.95 | – | –
[1], 293.15 K, x1 = 0.05047 | 710.88 | – | –
[1], 293.15 K, x1 = 0.1072 | 721.13 | – | –
[1], 293.15 K, x1 = 0.1969 | 739.1 | – | –
[1], 293.15 K, x1 = 0.2958 | 761.79 | – | –
[1], 293.15 K, x1 = 0.4018 | 789.7 | – | –
[1], 293.15 K, x1 = 0.5011 | 819.9 | – | –
[1], 293.15 K, x1 = 0.5974 | 853.5 | – | –
[1], 293.15 K, x1 = 0.699 | 894.47 | – | –
[1], 293.15 K, x1 = 0.7982 | 941.92 | – | –
[1], 293.15 K, x1 = 0.8992 | 999.55 | – | –
[1], 293.15 K, x1 = 0.949 | 1032.56 | – | –
[1], 298.15 K, x1 = 0.05047 | 706.69 | – | 1165
[1], 298.15 K, x1 = 0.1072 | 716.89 | – | 1158.1
[1], 298.15 K, x1 = 0.1969 | 734.68 | – | 1148.9
[1], 298.15 K, x1 = 0.2958 | 757.15 | – | 1141.5
[1], 298.15 K, x1 = 0.4018 | 784.9 | – | 1136.1
[1], 298.15 K, x1 = 0.5011 | 814.8 | – | 1133.7
[1], 298.15 K, x1 = 0.5974 | 848.1 | – | 1134.2
[1], 298.15 K, x1 = 0.699 | 888.77 | – | 1138.7
[1], 298.15 K, x1 = 0.7982 | 935.98 | – | 1149.1
[1], 298.15 K, x1 = 0.8992 | 993.3 | – | 1167.7
[1], 298.15 K, x1 = 0.949 | 1026.12 | – | 1180.9
[1], 308.15 K, x1 = 0.05047 | 698.46 | – | –
[1], 308.15 K, x1 = 0.1072 | 708.37 | – | –
[1], 308.15 K, x1 = 0.1969 | 725.85 | – | –
[1], 308.15 K, x1 = 0.2958 | 747.86 | – | –
[1], 308.15 K, x1 = 0.4018 | 775.1 | – | –
[1], 308.15 K, x1 = 0.5011 | 804.5 | – | –
[1], 308.15 K, x1 = 0.5974 | 837.3 | – | –
[1], 308.15 K, x1 = 0.699 | 877.52 | – | –
[1], 308.15 K, x1 = 0.7982 | 924.07 | – | –
[1], 308.15 K, x1 = 0.8992 | 980.86 | – | –
[1], 308.15 K, x1 = 0.949 | 1013.24 | – | –
[2], 288.15 K, x1 = 0.05306 | – | 245.12 | –
[2], 288.15 K, x1 = 0.1016 | – | 240.86 | –
[2], 288.15 K, x1 = 0.2012 | – | 232.99 | –
[2], 288.15 K, x1 = 0.2999 | – | 225.81 | –
[2], 288.15 K, x1 = 0.4012 | – | 219.02 | –
[2], 288.15 K, x1 = 0.4549 | – | 215.27 | –
[2], 288.15 K, x1 = 0.5037 | – | 211.61 | –
[2], 288.15 K, x1 = 0.5561 | – | 207.58 | –
[2], 288.15 K, x1 = 0.6482 | – | 199.24 | –
[2], 288.15 K, x1 = 0.7075 | – | 192.93 | –
[2], 288.15 K, x1 = 0.7982 | – | 182.94 | –
[2], 288.15 K, x1 = 0.8484 | – | 177.49 | –
[2], 288.15 K, x1 = 0.9493 | – | 167.98 | –
[2], 298.15 K, x1 = 0.05306 | – | 248.71 | –
[2], 298.15 K, x1 = 0.1016 | – | 244.21 | –
[2], 298.15 K, x1 = 0.1496 | – | 240.18 | –
[2], 298.15 K, x1 = 0.2012 | – | 235.89 | –
[2], 298.15 K, x1 = 0.2999 | – | 228.26 | –
[2], 298.15 K, x1 = 0.4012 | – | 220.47 | –
[2], 298.15 K, x1 = 0.4549 | – | 216.32 | –
[2], 298.15 K, x1 = 0.5037 | – | 212.23 | –
[2], 298.15 K, x1 = 0.5561 | – | 207.88 | –
[2], 298.15 K, x1 = 0.6482 | – | 199.37 | –
[2], 298.15 K, x1 = 0.7982 | – | 183.94 | –
[2], 298.15 K, x1 = 0.8484 | – | 178.74 | –
[2], 298.15 K, x1 = 0.9493 | – | 169.06 | –
[2], 308.15 K, x1 = 0.05306 | – | 252.62 | –
[2], 308.15 K, x1 = 0.1016 | – | 248.11 | –
[2], 308.15 K, x1 = 0.1496 | – | 243.91 | –
[2], 308.15 K, x1 = 0.2012 | – | 239.35 | –
[2], 308.15 K, x1 = 0.2999 | – | 231.22 | –
[2], 308.15 K, x1 = 0.4012 | – | 222.77 | –
[2], 308.15 K, x1 = 0.4549 | – | 218.33 | –
[2], 308.15 K, x1 = 0.5037 | – | 213.92 | –
[2], 308.15 K, x1 = 0.5561 | – | 209.21 | –
[2], 308.15 K, x1 = 0.5998 | – | 205.31 | –
[2], 308.15 K, x1 = 0.6482 | – | 200.7 | –
[2], 308.15 K, x1 = 0.7982 | – | 185.39 | –
[2], 308.15 K, x1 = 0.8484 | – | 180.34 | –
[2], 308.15 K, x1 = 0.8969 | – | 175.52 | –
[2], 308.15 K, x1 = 0.9493 | – | 170.5 | –
